The nature of data set [1]: Metabolic stability of test compounds using human liver microsomes. Format: in vitro ADME. To be noted: for half-life at 1 µM: human, pH 7.4, 1.0 mg/mL HLM, 1 μM test compound, 2 mM NADPH, 37° C., 0-30 minutes, read-out: Ave. t1/2 (n = 2), calculated half-life in human liver microsomes; for Change over non-deuterated compound (t1/2): vs Dimemorfan. As for the experimental part: Example 4. Determination of Metabolic Stability of Test Compounds using Human Liver Microsomes. Human liver microsomes (20 mg/mL) were obtained from Xenotech, LLC (Lenexa, Kans.). β-nicotinamide adenine dinucleotide phosphate, reduced form (NADPH), magnesium chloride (MgCl2), and dimethyl sulfoxide (DMSO) were purchased from Sigma-Aldrich.
7.5 mM stock solutions of test compounds were prepared in DMSO. The 7.5 mM stock solutions were diluted to 50 μM in acetonitrile (ACN). The 20 mg/mL human liver microsomes were diluted to 1.25 mg/mL (1 mg/mL final) in 0.1 M potassium phosphate buffer, pH 7.4, containing 3 mM MgCl2. The diluted microsomes (375 μL) were added to wells of a 96-well polypropylene plate in triplicate. 10 μL of the 50 μM test compound was added to the microsomes and the mixture was pre-warmed for 10 minutes. Reactions were initiated by addition of 125 μL of pre-warmed NADPH solution. The final reaction volume was 0.5 mL and contained 1.0 mg/mL human liver microsomes, 1 μM test compound, and 2 mM NADPH in 0.1 M potassium phosphate buffer, pH 7.4, and 3 mM MgCl2. The reaction mixtures were incubated at 37° C., and 50 μL aliquots were removed at 0, 5, 10, 20, and 30 minutes and added to shallow 96-well plates which contained 50 μL of ice-cold ACN with internal standard to stop the reactions. The plates were stored at 4° C. for 20 minutes after which 100 μL of water was added to the wells of the plate before centrifugation to pellet precipitated proteins. Supernatants were transferred to another 96-well plate and analyzed for amounts of parent remaining by LC-MS/MS using an Applied Bio-systems API 4000 mass spectrometer.
7-ethoxy coumarin was used as a positive control.
The in vitro t1/2s for test compounds were calculated from the slopes of the linear regression of % parent remaining (In) vs incubation time relationship:
in vitro t 1/2=0.693/k, where k=-[slope of linear regression of % parent remaining(In) vs incubation time]
(§1) Data analysis was performed using Microsoft Excel Software.

Data set [2] is described as follows: Effect of quinidine on metabolic stability in extensive metabolizer human liver microsomes. To be noted: EM HLM. Format: in vitro ADME. On the procedure: Materials: Individual donor with extensive metabolizer human liver microsomes (EM HLM, 20 mg/mL) with CYP2D6 activity of 957±19 pmol/mg protein/min, genotyped for CYP2D6 allelic variant-CYP2D6*1/*2x2, were obtained from Xenotech, LLC (Lenexa, Kans.). β-nicotinamide adenine dinucleotide phosphate, reduced form (NADPH), magnesium chloride (MgCl2), dimethyl sulfoxide (DMSO), acetonitrile (ACN), quinidine, and dextromethorphan (DM) were purchased from Sigma-Aldrich. Dimemorfan and d6-dimemorfan (Compound 100) were synthesized by Adesis, Inc.
Determination of Metabolic Stability: 1.0 mg/mL stock solutions of test compounds dextromethorphan, dimemorfan, and d6-dimemorfan (Compound 100) were prepared in DMSO. The 1.0 mg/mL stock solutions were diluted to 10,000 ng/mL in acetonitrile (ACN). A 10 mM stock solution of quinidine was prepared in acetonitrile, which was then diluted further in acetonitrile to produce 20 μM, 10 μM, 5 μM, 2.5 μM, and 1.25 μM solutions of quinidine. The human liver microsomes were diluted to 1.25 mg/mL in 0.1 M potassium phosphate buffer, pH 7.4, containing 3 mM MgC12. The diluted microsomes were added to wells of a 96-well deep-well polypropylene plate in triplicate. A 5 μL aliquot of each 10,000 ng/mL test compound was added to the microsomes, and the mixture was pre-warmed at 37° C. for 7 minutes, then a 5 μL aliquot of each quinidine solution was added (except in control wells where no quinidine was added). Reactions were initiated by addition of pre-warmed NADPH solution to the mixture. The final reaction volume was 0.5 mL and contained 1.0 mg/mL human liver microsomes, 100 ng/mL of test compound, 0.2, 0.1, 0.05, 0.025, 0.0125, or 0 μM of quinidine, and 2 mM NADPH in 0.1 M potassium phosphate buffer, pH 7.4, and 3 mM MgCl2. The reaction mixtures were incubated at 37° C., and 50 μL aliquots were removed at 0, 15, 30, and 60 minutes and added to shallow-well 96-well plates which contained 50 μL of ice-cold ACN with internal standard to stop the reactions. The plates were stored at 4° C. for 20 minutes after which 100 μL of water was added to the wells of the plate before centrifugation to pellet precipitated proteins. Supernatants were transferred to another 96-well plate and analyzed for amounts of parent remaining by LC-MS/MS using an Applied Bio-systems mass spectrometer. Amount of parent remaining was quantified via standard curve.
The in vitro t1/2's for test compounds were calculated from the slopes of the linear regression of % parent remaining (In) vs. incubation time relationship. • in vitro t1/2=0.693/k • k=-[slope of linear regression of % parent remaining(In) vs incubation time]
The apparent intrinsic clearance was calculated using the following equation:
CLint (mL/min/kg)=(0.693/in vitro t1/2) (Incubation Volume/mg of microsomes)
(45 mg microsomes/gram of liver) (20 gm of liver/kg b.w.)
as §1

Here are results for 3 compounds from patent publication US20190336494A1, “[…] COMPOUNDS FOR TREATING AGITATION” (Concert Pharmaceuticals, Inc., priority 2015, published 2019).

As to `[2H]C([2H])([2H])c1ccc2c(c1)[C@]13CCCC[C@@H]1[C@H](C2)N(C)CC3` [Compound 102, (+)-3-(Methyl-d3)-17-methyl-(9α, 13α, 14α)-morphinan], in data set [1], the half-life at 1 µM is 28 min and the “Change over non-deuterated compound (t1/2)” value was found to be 21%.

For the compound `Cc1ccc2c(c1)[C@]13CCCC[C@@H]1[C@H](C2)N(C)CC3` [Dimemorfan, (+)-(9α, 13α, 14α)-3,17-dimethylmorphinan, reference compound], the half-life at 1 µM in data set [1] is 23.1 min.

As for `[2H]C([2H])([2H])c1ccc2c(c1)[C@]13CCCC[C@@H]1[C@H](C2)N(C([2H])([2H])[2H])CC3` [Compound 100, (+)-3-(Methyl-d3)-17-(methyl-d3)-(9α, 13α, 14α)-morphinan], in data set [1], the half-life at 1 µM is 31.6 min. Further, in data set [1], the “Change over non-deuterated compound (t1/2)” value stood at 37%. The “% Δ (D6-Dimemorfan/Dimemorfan), deuterium effect on half-life” value in data set [2] (Quinidine 0 μM) is given as 35%; in data set [2] (Quinidine 0.0125 μM), 59%; in data set [2] (Quinidine 0.025 μM), 3%; in data set [2] (Quinidine 0.05 μM) it was 11%; in data set [2] (Quinidine 0.1 μM), 22%; in data set [2] (Quinidine 0.2 μM), −12%. Besides, the “Ratio (D6-Dimemorfan/Dimemorfan) of Clint, app” value came out at 0.74 in data set [2] (Quinidine 0 μM); 0.61 in data set [2] (Quinidine 0.0125 μM); 0.96 in data set [2] (Quinidine 0.025 μM); 0.90 in data set [2] (Quinidine 0.05 μM); 0.82 in data set [2] (Quinidine 0.1 μM); 1.11 in data set [2] (Quinidine 0.2 μM).
